According to PubChem BioAssay (NCI):
Where “and” joins values, the source holds several entries; their conditions need not be identical. Identical values can stand only once.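 Exposure lasted 48 hours, with cells grown in 96-well plates and compounds tested at five concentrations. At the GI50, growth is halved. At the TGI there is no net growth.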

What was measured:
Assay in all cases: NCI tumour cell line growth inhibition, 48 h
CAKI-1 renal = system: CAKI-1 renal
HOP-92 NSCLC = system: HOP-92 NSCLC
MALME-3M melanoma = system: MALME-3M melanoma
NCI-H460 lung = system: NCI-H460 lung
SF-268 CNS = system: SF-268 CNS
SK-MEL-2 melanoma = system: SK-MEL-2 melanoma
SK-MEL-28 melanoma = system: SK-MEL-28 melanoma
SK-MEL-5 melanoma = system: SK-MEL-5 melanoma
T-47D breast = system: T-47D breast
TK-10 renal = system: TK-10 renal

SMILES	GI50 (CAKI-1 renal)	TGI (CAKI-1 renal)	GI50 (HOP-92 NSCLC)	GI50 (MALME-3M melanoma)	TGI (MALME-3M melanoma)	GI50 (NCI-H460 lung)	TGI (NCI-H460 lung)	GI50 (SF-268 CNS)	TGI (SF-268 CNS)	GI50 (SK-MEL-2 melanoma)	TGI (SK-MEL-2 melanoma)	GI50 (SK-MEL-28 melanoma)	TGI (SK-MEL-28 melanoma)	GI50 (SK-MEL-5 melanoma)	TGI (SK-MEL-5 melanoma)	GI50 (T-47D breast)	TGI (T-47D breast)	GI50 (TK-10 renal)	TGI (TK-10 renal)	TGI (HOP-92 NSCLC)
CCC(C)(C)C(=O)O[C@H]1C[C@@H](C)C=C2C=C[C@H](C)[C@H](CC[C@@H]3C[C@@H](O)CC(=O)O3)[C@H]21	0.941 µM	3.73 µM and 8.56 µM	0.0335 µM	13.9 µM	30.5 µM	3.91 µM	14.1 µM and > 30 µM	0.715 µM	15.4 µM	0.765 µM	5.92 µM and 1.81 µM	5.05 µM	18.8 µM and > 30 µM	2.23 µM	7.87 µM	11.9 µM	28.2 µM	5.38 µM	18.2 µM	–
CC(=O)N1c2ccccc2C23CCN(C)CC4C(C)OCC(C4CC2=O)C13 (stereo not given)	–	> 100 µM	–	–	> 100 µM	–	> 100 µM	–	> 100 µM	–	> 100 µM	–	> 100 µM	–	> 100 µM	–	> 100 µM	–	> 100 µM	> 100 µM
O=[N+]([O-])c1ccc(Br)c([N+](=O)[O-])c1	0.406 µM	0.954 µM	1.94 µM	1.96 µM	4.18 µM	2.56 µM	8.72 µM	1.93 µM	3.94 µM	3.23 µM	10.3 µM	1.89 µM	3.64 µM	2.3 µM	5.64 µM	2.13 µM	4.94 µM	2.3 µM	6.22 µM	4.02 µM
COC(=O)NC1C(C)OC(OC2C/C=C(/C)C3C=CC4C(OC5CC(OC6CC(O)C(OC7CC(O)C(OC)C(C)O7)C(C)O6)C(O)C(C)O5)C(C)CC(C)C4C3(C)/C(O)=C3\C(=O)OC4(CC(C)C(CO)=CC4/C=C\2C)C3=O)CC1(C)[N+](=O)[O-] (stereo not given)	–	47.3 µM and 41.1 µM	9.95 µM	8.88 µM	15.8 µM and 17.8 µM	8.33 µM	18.4 µM and 30.5 µM	–	50 µM and 55.1 µM	9.66 µM	17.4 µM and 29.6 µM	9 µM	16.6 µM and 36 µM	10.9 µM	18.7 µM and 33.2 µM	–	31.8 µM	25.8 µM	32.5 µM and 81.2 µM	19.7 µM and 32.7 µM
C1=Cc2ccccc2Nc2ccccc21	> 100 µM	> 100 µM	86.1 µM	> 100 µM	> 100 µM	> 100 µM	> 100 µM	> 100 µM	> 100 µM	> 100 µM	> 100 µM	> 100 µM	> 100 µM	> 100 µM	> 100 µM	> 100 µM	> 100 µM	> 100 µM	> 100 µM	> 100 µM
CCN(CC)CCCC(C)Nc1cnc(C(=O)Nc2ccc(Cl)c3cccnc23)cn1 (stereo not given)	1.78 µM	4.1 µM	1.18 µM	1.82 µM	3.3 µM	2.64 µM	6.8 µM	3.23 µM	15 µM	1.95 µM	4.34 µM	1.79 µM	3.28 µM	1.8 µM	3.31 µM	1.21 µM	2.97 µM	9.09 µM	21.9 µM	2.82 µM
CCOc1cccc(/C=N/NC(=O)c2ccc(Nc3ccnc(C(F)(F)F)c3)cc2)c1O	1.36 µM	> 100 µM	1.01 µM	2.29 µM	> 47.8 µM	0.492 µM	13.6 µM	1.07 µM	> 100 µM	3.13 µM	> 45.4 µM	1.63 µM	> 58.5 µM	1.18 µM	8.11 µM	0.984 µM	19.4 µM	2.48 µM	> 100 µM	> 64.2 µM
COc1ccc2c(c1)C(=O)/C(=C/c1cccc(OCC(=O)Nc3nc4c(s3)CCCC4)c1)O2	0.383 µM	0.804 µM	0.18 µM	0.8 µM	2.86 µM	3.48 µM	13.4 µM	0.314 µM	1.08 µM	0.577 µM	1.34 µM	1.58 µM	3.22 µM	6.08 µM	19.4 µM	1.93 µM	4.34 µM	0.45 µM	0.934 µM	0.372 µM
O=c1c2cccc(Cl)c2sc2c(NCCCNCCO)nc3ccccc3c12	3.79 µM	17.6 µM	1.26 µM	1.61 µM	3.15 µM	1.01 µM	2.32 µM	3.66 µM	16.7 µM	10.9 µM	26.3 µM	1.85 µM	3.54 µM	6.5 µM	21 µM	2.2 µM	23 µM	3.07 µM	7.69 µM	7.82 µM
Cc1nn(-c2nc3ccccc3s2)c(C)c1Oc1ccccc1O	10.9 µM	22.9 µM	0.162 µM	12.6 µM	25.6 µM	0.654 µM	16.3 µM	5.31 µM	20.8 µM	–	–	10.2 µM	21.8 µM	1.3 µM	15.3 µM	8.63 µM	34.4 µM	13.9 µM	31.9 µM	16.6 µM
CC1=C[C@H]2c3c(c(O)c(O)c4oc5c(C)cccc5c(=O)c34)[C@H](c3cc(O)c(O)c4oc5c(C)cccc5c(=O)c34)[C@H]2C(C)(C)C1	1.5 µM	9.08 µM	2.39 µM	2.43 µM	10.7 µM	0.825 µM	3.02 µM	1.74 µM	11.7 µM	2.05 µM	5.1 µM	1.6 µM	4.18 µM	1.43 µM	2.78 µM	2.51 µM	14.1 µM	2.51 µM	11.7 µM	6.69 µM
O=C(Nc1ccccc1O)c1cccc(NC2=C(Cl)C(=O)N(Cc3ccccc3)C2=O)c1	5.12 µM	12.7 µM	10.5 µM	0.488 µM	9.19 µM	4.22 µM	14.9 µM	11.3 µM	27.5 µM	6.07 µM	24.1 µM	7.23 µM	20.5 µM	6.66 µM	14.4 µM	8.06 µM	28.6 µM	4.69 µM	13.4 µM	24.3 µM
COc1cc2nc(-c3cnc(N(C)C)nc3)nc(NC3CCN(Cc4ccccc4)CC3)c2cc1OC	1.44 µM	2.81 µM	1.03 µM	1.66 µM	3.42 µM	0.412 µM	1.7 µM	1.73 µM	3.72 µM	1.8 µM	3.45 µM	1.83 µM	3.58 µM	1.58 µM	2.95 µM	1.81 µM	4.14 µM	1.63 µM	3.08 µM	2.46 µM
CC1=NN(c2ccccc2)C(=O)C1N=Nc1ccc([As](=O)(O)O)c(O)c1 (stereo not given)	–	> 100 µM	–	–	> 100 µM	–	> 100 µM	–	> 100 µM	–	> 100 µM	–	> 100 µM	–	> 100 µM	–	> 100 µM	–	> 100 µM	> 100 µM
Oc1ccc(-c2nnc3sc(-c4ccc(F)c(Oc5ccccc5)c4)nn23)cc1	20.8 µM	80.6 µM	26.1 µM	44.4 µM	98.7 µM	38.5 µM	> 100 µM	18 µM	53.2 µM	> 100 µM	> 100 µM	> 100 µM	> 100 µM	18.6 µM	> 100 µM	16.4 µM	76.3 µM	29.6 µM	77 µM	> 100 µM
CCOc1c(Br)cc(C2C(C(=O)OC)=CN(C)C=C2C(=O)OC)cc1OC	44.3 µM	> 100 µM	33.4 µM	> 100 µM	> 100 µM	58.1 µM	> 100 µM	> 100 µM	> 100 µM	–	–	> 100 µM	> 100 µM	40.5 µM	> 100 µM	45.9 µM	> 100 µM	> 100 µM	> 100 µM	> 100 µM
CC[C@H](C)[C@H]1NC(=O)[C@@H](N[C@](C)(O)[C@@H](N)CC(C)C)[C@@H](C)OC(=O)[C@H](Cc2ccc(OC)cc2)N(C)C(=O)[C@@H]2CCCN2C(=O)[C@H](CC(C)C)NC(=O)[C@@H](C)C(=O)[C@H](C(C)C)OC(=O)C[C@@H]1O	0.241 µM	2.59 µM	0.0262 µM	0.0117 µM	0.133 µM	0.011 µM	0.572 µM	0.0132 µM	0.348 µM	0.00972 µM	0.0499 µM	0.0117 µM	0.0954 µM	0.018 µM	0.665 µM	0.00897 µM	0.301 µM	0.0397 µM	0.557 µM	0.391 µM
COC(=O)Nc1nc2ccc(Oc3ccc(NC(=O)Nc4cccc(C(=O)O)c4)cc3)cc2[nH]1	> 23.8 µM	> 25 µM	> 25 µM	7.92 µM	> 25 µM	7.21 µM	> 25 µM	11.3 µM	> 25 µM	9.24 µM	> 25 µM	10 µM	> 25 µM	3.24 µM	> 21 µM	> 14.2 µM	> 25 µM	> 23.1 µM	> 25 µM	> 25 µM
Cn1cc(C2=C(c3cccc4ccccc34)C(=O)NC2=O)c2ccccc21	5.31 µM	> 22.9 µM	8.46 µM	9.45 µM	24.2 µM	8.2 µM	> 25 µM	9.17 µM	> 25 µM	7.33 µM	18.6 µM	8.91 µM	> 25 µM	5.1 µM	11.9 µM	6.32 µM	24.5 µM	9.14 µM	> 23.9 µM	24.3 µM
COc1cc(-c2nc(Nc3nc4ccccc4[nH]3)nc(N)c2C#N)cc(OC)c1OC	6.04 µM	> 60.6 µM	0.341 µM	21.7 µM	> 80.1 µM	1.77 µM	> 54.2 µM	> 53.2 µM	> 100 µM	2.69 µM	34 µM	19.1 µM	> 100 µM	0.414 µM	16.2 µM	4.27 µM	52.8 µM	30.7 µM	> 100 µM	31.8 µM
CCCN(CCC)C(=O)C1=Cc2ccc(-c3ccc(C(=O)N4CCCC4)cc3)cc2N=C(N)C1	7.66 µM	40.3 µM	7.99 µM	8.32 µM	23 µM	4.46 µM	17.4 µM	15.5 µM	46 µM	10.6 µM	26.2 µM	8.91 µM	24.8 µM	2.91 µM	10.9 µM	3.56 µM	26.8 µM	19.6 µM	70.1 µM	54.3 µM
COc1cccc(C2c3cc4c(cc3OC(C)(O)C2C)OCO4)c1O (stereo not given)	–	15.7 µM	–	–	56.3 µM	–	30.6 µM	–	> 100 µM	–	65.3 µM	–	> 100 µM	–	16.9 µM	–	13.1 µM	–	51 µM	47.3 µM
CC(C)=CCC[C@H](C)[C@@H]1CC[C@]2(C)C3CC[C@]4(OC4(C)C)C(CCCO)[C@]3(C)CC[C@@]12C (stereo not given in full)	21.7 µM	44.4 µM	14.5 µM	27.3 µM	54.6 µM	23.7 µM	70.3 µM	17.8 µM	36 µM	–	–	23.9 µM	58.5 µM	22.7 µM	42.9 µM	17.4 µM	45.6 µM	17.5 µM	38.2 µM	34.7 µM
O=c1cc(-c2cccc(C(F)(F)F)c2)[nH]c2cc3c(cc12)OCO3	–	> 100 µM	–	–	> 100 µM	0.353 µM	4.08 µM and 11 µM	–	–	–	3.34 µM	0.455 µM	50 µM and 53.9 µM	1.27 µM	4.41 µM	> 100 µM	> 100 µM	22.5 µM	> 100 µM	50 µM
COc1ccc(-c2[nH]c3ccccc3c2C=C(C#N)C#N)cc1	0.625 µM	–	1.21 µM	0.874 µM	> 100 µM	0.368 µM	> 100 µM	0.708 µM	65.6 µM	–	> 100 µM	1.14 µM	> 39.3 µM	–	–	0.481 µM	> 100 µM	0.917 µM	> 71.7 µM	> 100 µM
